Laboratory results as given in patent publication US20260015351A1, “METHODS AND COMPOUNDS FOR INHIBITING MKK7 ENZYMES” (AXONIS THERAPEUTICS, INC., priority 2022, published 2026).

Molecular target: T1, MKK7 (Homo sapiens (Human), UniProt O14733)
Assay: MKK7 ADP-Glo in vitro pharmacology assay
Format: biochemical
Settings: calculated from remaining activity (%)
Experimental: A study was conducted to determine the pharmacology of Compounds 1-18 in vitro in a plurality of biological matrices. Compounds 1-18 were prepared into proper concentrations of DMSO solution. The compound stock was then serially diluted into 10 concentrations by 3-fold dilution in 384 pp-plate. 5 nL of compound stock was transferred to a 384 plate. The compound stock was then diluted to 0.74 nM using a solution, which contained 0.79 mL of water, 0.2 mL of 5× Buffer, 2 μL of DTT, 6.66 μL of 7.5% BSA, and 5 μL of 10 mM ATP, to form an MKK7 mixture. The MKK7 mixture was then pre-warmed and 2.5 μL was added to each well designated for the “Test compound” and “High control” well, 2.5 μL solution 1 to each well designated for the “Low control” well. The well was incubated for 30 min and centrifuged at room temperature. Following centrifugation, 5 μL of ADD-Glo Reagent was added to each well and incubated for 60 min after centrifugation at room temperature. 10 μL of ADP-Glo Detection was then added to each well and incubated for 30 min after centrifugation in dark at room temperature. IC50 values were calculated based on the remaining activity (%) using read conversion ratio (CR).

T1 sequence (O14733 whole entry): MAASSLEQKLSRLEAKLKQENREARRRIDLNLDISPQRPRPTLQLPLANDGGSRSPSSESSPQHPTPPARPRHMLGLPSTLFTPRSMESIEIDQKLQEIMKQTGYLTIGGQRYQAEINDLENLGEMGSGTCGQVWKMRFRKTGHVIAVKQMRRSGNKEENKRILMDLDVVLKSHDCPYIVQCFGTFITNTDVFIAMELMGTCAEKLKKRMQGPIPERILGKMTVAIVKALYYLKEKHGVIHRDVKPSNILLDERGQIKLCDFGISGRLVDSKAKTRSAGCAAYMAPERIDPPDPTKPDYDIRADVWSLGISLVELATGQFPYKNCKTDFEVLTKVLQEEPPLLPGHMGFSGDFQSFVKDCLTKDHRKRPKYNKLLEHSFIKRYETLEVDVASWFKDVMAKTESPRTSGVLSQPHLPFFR

**Q.** With C=CC(=O)N1c2cc(-c3n[nH]c4ncccc34)ccc2CC1C (stereo not drawn) [Compound 15, 1-[2-methyl-6-{1H-pyrazolo [3,4-b]pyridin-3-yl}-2,3-dihydroindol-1-yl]prop-2-en-1-one] as the molecule, how does the IC50 read?
**A.** Its IC50 is 440 nM.

**Q.** Which IC50 does the source give for N#C/C=C/C(=O)N1CCc2ccc(-c3n[nH]c4ccccc34)cc21 [Compound 5, (2E)-4-[6-(1H-indazol-3-yl)-2,3-dihydroindol-1-yl]-4-oxobut-2-enenitrile] here?
**A.** Its IC50 is 70 nM.

**Q.** How did the IC50 turn out when C=CC(=O)N1CCc2ccc(-c3n[nH]c4ncccc34)c(F)c21 [Compound 17, 1-(7-fluoro-6-{1H-pyrazolo[3,4-b]pyridin-3-yl}-2,3-dihydroindol-1-yl)prop-2-en-1-one] was run?
**A.** Its IC50 is 88 nM.

**Q.** With C=CC(=O)N1CCc2ccc(-c3n[nH]c4ccccc34)cc21 [Compound 14, 1-[6-(1H-indazol-3-yl)-2,3-dihydroindol-1-yl]prop-2-en-1-one] as the molecule, how does the IC50 read?
**A.** The IC50 was 19 nM.

**Q.** C=C(F)C(=O)N1CCc2ccc(-c3n[nH]c4ccccc34)cc21 [Compound 8, 2-fluoro-1-[6-(1H-indazol-3-yl)-2,3-dihydroindol-1-yl]prop-2-en-1-one] was tested. Which IC50 did it give?
**A.** Its IC50 is 840 nM.

**Q.** C=CC(=O)N1CCOc2ccc(-c3n[nH]c4ccccc34)cc21 [Compound 13, 1-[6-(1H-indazol-3-yl)-2,3-dihydro-1,4-benzoxazin-4-yl]prop-2-en-1-one] was tested. Which IC50 did it give?
**A.** Its IC50 is 140 nM.

**Q.** Which IC50 does the source give for C=CC(=O)N1CCCc2ccc(-c3n[nH]c4cnccc34)cc21 [Compound 10, 1-(7-{1H-pyrazolo[3,4-c]pyridin-3-yl}-3,4-dihydro-2H-quinolin-1-yl)prop-2-en-1-one] here?
**A.** Its IC50 is 550 nM.

**Q.** For C=CS(=O)(=O)N1CCc2ccc(-c3n[nH]c4ncccc34)cc21 [Compound 16, 1-(ethenesulfonyl)-6-{1H-pyrazolo[3,4-b]pyridin-3-yl}-2,3-dihydroindole], which IC50 is on record?
**A.** The IC50 was 7.7 nM.

**Q.** CCOC(=O)/C=C/C(=O)N1CCc2ccc(-c3n[nH]c4ccccc34)cc21 [Compound 7, ethyl (2E)-4-[6-(1H-indazol-3-yl)-2,3-dihydroindol-1-yl]-4-oxobut-2-enoate] was tested. Which IC50 did it give?
**A.** The IC50 was 3900 nM.

**Q.** With C=CC(=O)N1CCc2c(-c3n[nH]c4ccccc34)cccc21 [Compound 2, 1-[4-(1H-indazol-3-yl)-2,3-dihydroindol-1-yl]prop-2-en-1-one] as the molecule, how does the IC50 read?
**A.** Its IC50 is 92 nM.

**Q.** C=CC(=O)N1c2cc(-c3n[nH]c4ncccc34)ccc2C[C@@H]1C [Compound 15-B] was tested. Which IC50 did it give?
**A.** The IC50 was 160 nM.

**Q.** For C=CC(=O)N1CCCc2ccc(-c3n[nH]c4ccncc34)cc21 [Compound 11, 1-(7-{1H-pyrazolo[4,3-c]pyridin-3-yl}-3,4-dihydro-2H-quinolin-1-yl)prop-2-en-1-one], which IC50 is on record?
**A.** Its IC50 is 1400 nM.

**Q.** C=CC(=O)N1CCCc2ccc(-c3n[nH]c4cc(C)ccc34)cc21 [Compound 12, 1-[7-(6-methyl-1H-indazol-3-yl)-3,4-dihydro-2H-quinolin-1-yl]prop-2-en-1-one] was tested. Which IC50 did it give?
**A.** The IC50 was 160 nM.

**Q.** With C/C=C/C(=O)N1CCc2ccc(-c3n[nH]c4ccccc34)cc21 [Compound 9, (2E)-1-[6-(1H-indazol-3-yl)-2,3-dihydroindol-1-yl]but-2-en-1-one] as the molecule, how does the IC50 read?
**A.** The IC50 was 1100 nM.

**Q.** With C=CC(=O)N1CCc2ccc(-c3n[nH]c4cnccc34)cc21 [Compound 1, 1-(6-{1H-pyrazolo[3,4-c]pyridin-3-yl}-2,3-dihydroindol-1-yl)prop-2-en-1-one] as the molecule, how does the IC50 read?
**A.** Its IC50 is 4.8 nM.

**Q.** For C=CC(=O)N1CCc2ccc(-c3n[nH]c4ccncc34)cc21 [Compound 3, 1-(6-{1H-pyrazolo[4,3-c]pyridin-3-yl}-2,3-dihydroindol-1-yl)prop-2-en-1-one], which IC50 is on record?
**A.** The IC50 was 30 nM.

**Q.** How did the IC50 turn out when C=CC(=O)N1CCc2ccc(-c3n[nH]c4cc(C)ccc34)cc21 [Compound 4, 1-[6-(6-methyl-1H-indazol-3-yl)-2,3-dihydroindol-1-yl]prop-2-en-1-one] was run?
**A.** The IC50 was 23 nM.

**Q.** Which IC50 does the source give for C=CC(=O)N1CCc2ccc(-c3n[nH]c4cc(C#N)ccc34)cc21 [Compound 18, 3-[1-(prop-2-enoyl)-2,3-dihydroindol-6-yl]-1H-indazole-6-carbonitrile] here?
**A.** The IC50 was 6 nM.

**Q.** For CN(C)C/C=C/C(=O)N1CCc2ccc(-c3n[nH]c4ccccc34)cc21 [Compound 6, (2E)-4-(dimethylamino)-1-[6-(1H-indazol-3-yl)-2,3-dihydroindol-1-yl]but-2-en-1-one], which IC50 is on record?
**A.** The IC50 was 180 nM.

Molecular target: T1, MKK7
Assay: In vitro competitive binding assay (kinase-tagged phage / qPCR)
Settings: 11-point 3-fold dilution series; Hill slope set to -1
Experimental: Kinase-tagged T7 phage strains were prepared in an E. coli host derived from the BL21 strain. E. coli were grown to log-phase and infected with T7 phage and incubated with shaking at 32° C. until lysis. The lysates were centrifuged and filtered to remove cell debris. The remaining kinases were produced in HEK-293 cells and subsequently tagged with DNA for qPCR detection. Streptavidin-coated magnetic beads were treated with biotinylated small molecule ligands for 30 minutes at room temperature to generate affinity resins for kinase assays. The liganded beads were blocked with excess biotin and washed with blocking buffer (SeaBlock (Pierce), 1% BSA, 0.05% Tween 20, 1 mM DTT) to remove unbound ligand and to reduce non-specific binding. […] Kds were determined using an 11-point 3-fold compound dilution series with three DMSO control points. […] The kinase concentration in the eluates was measured by qPCR.
An 11-point 3-fold serial dilution of each test compound was prepared in 100% DMSO at 100× final test concentration and subsequently diluted to 1× in the assay (final DMSO concentration=1%). Most Kds were determined using a compound top concentration=30,000 nM. […]
Binding constants (Kds) were calculated with a standard dose-response curve using the Hill equation: […]

**Q.** With C=CC(=O)N1CCCc2ccc(-c3n[nH]c4cc(C)ccc34)cc21 [Compound 12, 1-[7-(6-methyl-1H-indazol-3-yl)-3,4-dihydro-2H-quinolin-1-yl]prop-2-en-1-one] as the molecule, how does the Kd read?
**A.** The Kd was 71 nM.

**Q.** Which Kd does the source give for C=CC(=O)N1CCc2ccc(-c3n[nH]c4cc(C)ccc34)cc21 [Compound 4, 1-[6-(6-methyl-1H-indazol-3-yl)-2,3-dihydroindol-1-yl]prop-2-en-1-one] here?
**A.** Its Kd is 7.8 nM.
